Reference: patent US9216983B2, “Dihydroorotate dehydrogenase inhibitors with selective anti-malarial activity” (BOARD OF REGENTS, UNIVERSITY OF TEXAS SYSTEM, priority 2007, dated 2015)
Where two headings read alike, the source gives them in different places.

Experiments:
[1] = biological target: T1, PfDHODH (Plasmodium falciparum, UniProt Q08210); experiment: biochemical
T1 sequence (Q08210 24-569): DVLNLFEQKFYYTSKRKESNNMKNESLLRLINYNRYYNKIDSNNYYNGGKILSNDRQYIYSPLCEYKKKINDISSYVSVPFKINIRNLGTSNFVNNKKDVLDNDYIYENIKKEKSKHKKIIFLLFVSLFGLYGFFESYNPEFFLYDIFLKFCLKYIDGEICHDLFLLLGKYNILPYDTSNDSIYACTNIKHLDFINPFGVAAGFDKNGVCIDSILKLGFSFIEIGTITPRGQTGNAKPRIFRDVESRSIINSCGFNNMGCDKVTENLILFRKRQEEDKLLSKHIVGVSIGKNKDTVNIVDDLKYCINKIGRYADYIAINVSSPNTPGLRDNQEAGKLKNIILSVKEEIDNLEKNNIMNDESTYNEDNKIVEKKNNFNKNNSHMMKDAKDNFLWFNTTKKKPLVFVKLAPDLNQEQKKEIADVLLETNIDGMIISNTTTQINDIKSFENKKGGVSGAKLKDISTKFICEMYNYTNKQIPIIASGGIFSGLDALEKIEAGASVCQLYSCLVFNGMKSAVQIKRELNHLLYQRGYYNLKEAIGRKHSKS
Description: (§1) Briefly, the assay solution contained 100 mM HEPES, pH 8.0, 150 mM NaCl, 10% glycerol, 0.1% Triton X-100, 20 micro molar COQD (coenzyme QD), 200 micro molar L-dihydroorotate, and 120 micro molar DCIP. Reactions are initiated by addition of enzyme to a final concentration in the range of about […] to about 50 nM while maintaining the temperature of a circulating water bath at 25° C.
(§2) Assay solutions were prepared as discussed above, except that DCIP is not present and the solution is depleted of oxygen by the inclusion of an oxidase/reductase system, such as, 0.1 mg/ml of glucose oxidase, 0.02 mg/ml catalase and 50 mM glucose. The data obtained is fitted to equation 1, to determine the IC50 values of the representative compounds.

[2] = biological target: PbDHODH (Plasmodium berghei, UniProt A0A509AEH5); experiment: DHODH enzyme inhibition assay, PbDHODH; type: biochemical, P. berghei; settings: Table 4, IC50 class
Description: as §1, §2

[3] = biological target: hDHODH (Homo sapiens, UniProt Q02127); experiment: DHODH enzyme inhibition assay, hDHODH; type: biochemical; settings: Table 4, IC50 class; read-out: hDHODH
Description: as §1, §2

[4] = Table 4, IC50 class, read-out: PfDHODH
[5] = Table 5, read-out: PfDHODH IC50

PbDHODH, sequence (A0A509AEH5 entry or part of it): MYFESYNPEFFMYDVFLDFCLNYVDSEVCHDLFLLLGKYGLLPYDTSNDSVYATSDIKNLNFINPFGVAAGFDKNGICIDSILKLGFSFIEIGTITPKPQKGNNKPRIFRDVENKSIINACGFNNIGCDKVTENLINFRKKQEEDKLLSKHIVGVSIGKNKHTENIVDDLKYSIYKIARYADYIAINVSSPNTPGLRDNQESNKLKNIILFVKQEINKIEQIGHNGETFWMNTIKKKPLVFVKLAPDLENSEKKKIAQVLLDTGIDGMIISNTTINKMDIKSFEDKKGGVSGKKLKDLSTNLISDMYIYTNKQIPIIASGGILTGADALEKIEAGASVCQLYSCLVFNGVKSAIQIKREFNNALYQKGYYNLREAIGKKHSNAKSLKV
hDHODH, sequence (Q02127 whole entry): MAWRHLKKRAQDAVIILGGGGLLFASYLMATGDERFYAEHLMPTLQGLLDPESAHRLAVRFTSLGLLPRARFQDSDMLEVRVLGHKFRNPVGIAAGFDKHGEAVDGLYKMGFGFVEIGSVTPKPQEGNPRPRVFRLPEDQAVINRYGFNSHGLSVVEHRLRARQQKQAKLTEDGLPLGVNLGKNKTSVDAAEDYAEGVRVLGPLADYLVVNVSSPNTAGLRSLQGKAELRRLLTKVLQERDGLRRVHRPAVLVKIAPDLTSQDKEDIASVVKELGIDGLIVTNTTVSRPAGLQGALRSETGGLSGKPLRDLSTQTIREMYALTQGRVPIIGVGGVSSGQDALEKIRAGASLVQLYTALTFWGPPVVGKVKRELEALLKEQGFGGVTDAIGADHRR

Row | SMILES | IC50 [1, 4] | IC50 ([2]; PbDHODH) | IC50 [1, 5] | other results
1 | Cc1cc(Nc2ccccc2C)n2ncnc2n1 | > 10000 nM | > 10000 nM |  | 
2 | CCCc1nc2nc(C)cc(Nc3ccc(C)c(Cl)c3)n2n1 |  |  | 132 nM | 
3 | Cc1cc(Nc2ccc3c(c2)CCC3)n2ncnc2n1 |  |  | 116 ± 30 nM | 
4 | CCCc1nc2nc(C)cc(Nc3ccc(C)c(F)c3)n2n1 |  |  | 277 nM | 
5 | Cc1cc(Nc2ccc(Cl)c(Cl)c2)n2nc(C)nc2n1 |  |  | 75.2 nM | 
6 | COc1ccc(Nc2cc(C)nc3ncnn23)cc1 | < 2000 nM |  |  | IC50 [3]: > 10000 nM; IC50 ([2]; read-out: PbDHODH): < 2000 nM
7 | COc1ccc(Nc2cc(C)nc3nc(C)nn23)cc1Cl [drawing 98] |  |  | 375 nM | 
8 | Cc1cc(Nc2cc(F)cc(F)c2)n2ncnc2n1 | 2000 to 10000 nM |  |  | IC50 [3]: > 10000 nM; IC50 ([2]; read-out: PbDHODH): > 10000 nM
9 | CCc1nc2nc(C)cc(Nc3cccc(C(F)(F)F)c3)n2n1 |  |  | 1170 nM | 
10 | Cc1cc(Nc2cccc(Cl)c2)n2ncnc2n1 [drawing 35] |  |  |  | IC50 ([1]; PfDHODH, Table 4, IC50 class): < 2000 nM
11 | CCCCCc1ccc(Nc2cc(C)nc3ncnn23)cc1 | < 2000 nM | > 10000 nM |  | 
12 | Cc1cc(Nc2ccc(Br)cc2)n2ncnc2n1 | 2000 to 10000 nM | > 10000 nM |  | 
13 | C#Cc1ccc(Nc2cc(C)nc3ncnn23)cc1 |  |  | 990 ± 180 nM | 
14 | Cc1cc(Nc2ccc(C)c(F)c2)n2ncnc2n1 | < 2000 nM |  |  | IC50 [3]: > 10000 nM; IC50 ([2]; read-out: PbDHODH): 2000 to 10000 nM
15 | Cc1cc(Nc2ccc(C)c(C)c2)n2ncnc2n1 | < 2000 nM |  |  | IC50 [3]: > 10000 nM; IC50 ([2]; read-out: PbDHODH): 2000 to 10000 nM
16 | Cc1cc(Nc2cccc(F)c2)n2ncnc2n1 | 2000 to 10000 nM |  |  | IC50 [3]: > 10000 nM; IC50 ([2]; read-out: PbDHODH): > 10000 nM
17 | Cc1cc(Nc2ccc(C)c(Cl)c2)n2ncnc2n1 |  |  | 240 nM | 
18 | Cc1cc(Nc2ccc(N(C)C)cc2)n2ncnc2n1 | < 2000 nM | > 10000 nM |  | 
19 | Cc1cc(Nc2ccc(F)c(C)c2)n2ncnc2n1 [drawing 39] | 2000 to 10000 nM |  |  | IC50 [3]: 2000 to 10000 nM; IC50 ([2]; read-out: PbDHODH): > 10000 nM
20 | Cc1cc(Nc2ccc(F)c(F)c2F)n2ncnc2n1 | > 10000 nM |  |  | IC50 [3]: > 10000 nM; IC50 ([2]; read-out: PbDHODH): > 10000 nM
21 | Cc1cc(Nc2cccc(Cl)c2)n2ncnc2n1 [drawing 116] |  |  |  | IC50 ([1]; PfDHODH IC50, Table 5): 566 nM
22 | Cc1cc(Nc2ccc(C#N)c(C(F)(F)F)c2)n2ncnc2n1 |  | > 10000 nM |  | IC50 [3]: 2000 to 10000 nM; IC50 ([1]; PfDHODH, Table 4, IC50 class): 2000 to 10000 nM
23 | Cc1cc(Nc2ccc(C#N)cc2)n2ncnc2n1 | 2000 to 10000 nM |  |  | 
24 | CCc1nc2nc(C)cc(Nc3ccc(F)c(Cl)c3)n2n1 |  |  | 145 nM | 

Row | SMILES | IC50 [1, 4] | IC50 ([2]; PbDHODH) | IC50 [1, 5] | other results
25 | CCCc1ccc(Nc2cc(C)nc3ncnn23)cc1 | < 2000 nM | 2000 to 10000 nM |  | IC50 [3]: > 10000 nM
26 | Cc1cc(Nc2ccc(C(C)C)cc2)n2ncnc2n1 | < 2000 nM | < 2000 nM |  | IC50 [3]: > 10000 nM
27 | Cc1cc(Nc2ccccc2F)n2ncnc2n1 | > 10000 nM | > 10000 nM |  | 
28 | C=Cc1ccc(Nc2cc(C)nc3ncnn23)cc1 |  | 2000 to 10000 nM |  | 
29 | Cc1cc(Nc2ccc(I)cc2)n2ncnc2n1 |  |  | 151 nM | 
30 | Cc1cc(Nc2c(F)cc(F)cc2F)n2ncnc2n1 | > 10000 nM |  |  | IC50 [3]: > 10000 nM; IC50 ([2]; read-out: PbDHODH): > 10000 nM
31 | Cc1cc(Nc2cc(F)c(F)cc2F)n2ncnc2n1 | > 10000 nM | > 10000 nM |  | 
32 | Cc1cc(Nc2ccc(C(C)(C)C)cc2)n2ncnc2n1 | < 2000 nM | < 2000 nM |  | 
33 | Cc1cc(Nc2ccc3c(c2)OCO3)n2ncnc2n1 | < 2000 nM | > 10000 nM |  | IC50 [3]: > 10000 nM
34 | Cc1cccc(Nc2cc(C)nc3ncnn23)c1 | 2000 to 10000 nM | > 10000 nM |  | 
35 | Cc1cc(Nc2ccc(OC(F)(F)F)cc2)n2ncnc2n1 | < 2000 nM |  |  | IC50 [3]: > 10000 nM; IC50 ([2]; read-out: PbDHODH): > 10000 nM
36 | CCc1ccc(Nc2cc(C)nc3ncnn23)cc1 | < 2000 nM | 2000 to 10000 nM |  | IC50 [3]: > 10000 nM
37 | Cc1cc(Nc2ccc(F)c(F)c2)n2ncnc2n1 | 2000 to 10000 nM | 2000 to 10000 nM |  | 
38 | Cc1cc(Nc2ccc(S(F)(F)(F)(F)F)cc2)n2ncnc2n1 |  |  | 117 ± 10 nM | 
39 | Cc1cc(Nc2ccc3[nH]c(C(F)(F)F)nc3c2)n2ncnc2n1 | > 10000 nM |  |  | IC50 [3]: > 10000 nM; IC50 ([2]; read-out: PbDHODH): > 10000 nM
40 | Cc1cc(Nc2c(F)c(F)c(F)c(F)c2F)n2ncnc2n1 | > 10000 nM | > 10000 nM |  | 
41 | Cc1cc(Nc2ccc(Cl)c(C)c2)n2nc(C)nc2n1 |  |  | 1390 nM | 
42 | Cc1cc(Nc2c(F)cccc2F)n2ncnc2n1 | > 10000 nM | > 10000 nM |  | 
43 | Cc1cc(Nc2ccc(F)cc2)n2ncnc2n1 | > 10000 nM | > 10000 nM |  | 
44 | CCc1cccc(Nc2cc(C)nc3ncnn23)c1 |  |  | 641 nM | 
45 | CCCCCCCCc1ccc(Nc2cc(C)nc3ncnn23)cc1 | > 10000 nM | > 10000 nM |  | 
46 | Cc1ccc(Nc2cc(C)nc3ncnn23)cc1 | 2000 to 10000 nM | > 10000 nM |  | 
47 | Cc1cc(Nc2cc(F)ccc2F)n2ncnc2n1 | > 10000 nM | > 10000 nM |  | 
48 | Cc1cc(Nc2ccc(Cl)c(C(F)(F)F)c2)n2ncnc2n1 | < 2000 nM |  |  | IC50 ([2]; read-out: PbDHODH): < 2000 nM

Row | SMILES | IC50 [1, 4] | IC50 ([2]; PbDHODH) | IC50 [1, 5] | other results
49 | CCc1nc2nc(C)cc(Nc3ccc(C)c(F)c3)n2n1 |  |  | 66.3 nM | 
50 | CCCCCCCc1ccc(Nc2cc(C)nc3ncnn23)cc1 | > 10000 nM | > 10000 nM |  | 
51 | Cc1cc(Nc2cccc(F)c2F)n2ncnc2n1 | > 10000 nM | > 10000 nM |  | 
52 | CCc1nc2nc(C)cc(Nc3ccc(OC)cc3)n2n1 |  |  | 2250 nM | 
53 | Cc1cc(Nc2cccc(C(F)(F)F)c2)n2nc(C)nc2n1 |  |  | 285 nM | 
54 | Cc1cc(Nc2ccccc2C(F)(F)F)n2ncnc2n1 | > 10000 nM | > 10000 nM |  | 
55 | CCCCCCc1ccc(Nc2cc(C)nc3ncnn23)cc1 | 2000 to 10000 nM | > 10000 nM |  | 
56 | CCc1nc2nc(C)cc(Nc3ccc(I)cc3)n2n1 |  |  | 37.9 nM | 
57 | Cc1cc(Nc2ccc3c(c2)CCCC3)n2ncnc2n1 |  |  | 50 ± 8 nM | 
58 | Cc1cc(Nc2c(F)c(F)cc(F)c2F)n2ncnc2n1 | > 10000 nM | > 10000 nM |  | 
59 | Cc1cc(Nc2ccc(OC(F)F)cc2)n2ncnc2n1 [drawing 44] | < 2000 nM | > 10000 nM |  | 
60 | CCc1nc2nc(C)cc(Nc3ccc(Br)cc3F)n2n1 |  |  | 395 nM | 
61 | Cc1cc(Nc2ccc(C)c(C)c2)n2nc(C)nc2n1 |  |  | 81.4 nM | 
62 | Cc1cc(Nc2ccc(-c3ccccc3)cc2)n2ncnc2n1 | 2000 to 10000 nM |  |  | 
63 | Cc1cc(Nc2ccc(N3CCOCC3)cc2)n2ncnc2n1 |  |  | > 100000 nM | 
64 | COc1ccc(Nc2cc(C)nc3ncnn23)cc1Cl |  |  | 362 nM | 
65 | Cc1cc(Nc2ccc(OCc3ccccc3)cc2)n2ncnc2n1 |  |  | 6300 ± 950 nM | 
66 | Cc1cc(Nc2ccccc2Cl)n2ncnc2n1 | > 10000 nM | > 10000 nM |  | 
67 | Cc1cc(Nc2ccc([N+](=O)[O-])cc2)n2ncnc2n1 | 2000 to 10000 nM | 2000 to 10000 nM |  | 
68 | COc1ccc(Nc2cc(C)nc3nc(C)nn23)cc1Cl [drawing 99] |  |  | 326 nM | 
69 | Cc1cc(Nc2ccccc2C#N)n2ncnc2n1 | > 10000 nM | > 10000 nM |  | 
70 | Cc1cc(Nc2ccc(C)c(F)c2)n2nc(C)nc2n1 |  |  | 629 nM | 
71 | CCCc1nc2nc(C)cc(Nc3cccc(Cl)c3)n2n1 |  |  | 247 nM | 
